# From US20190030053A1, “COMPOSITION FOR INCREASING EXPRESSION OF PGC-1alpha” (BENEBIOSIS CO., LTD., priority 2016, published 2019)
# Key:
# [1] = system: high-fat diet mice; assay: Subcutaneous fat changes of high-fat diet mice by subcutaneous injection; assay type: in vivo, mouse; conditions: 0.5 ml of 100 mM, subcutaneous injection day 0 and day 4; observed day 4 and 7
# Description: 4-Week-old C56BL/6 mice were purchased from Dooyeul Biotech (Korea). Water was freely accessible, and a commercially available pellet feed (Dooyeul Biotech, Korea) was given for one week. A high-fact (60% fat) diet purchased from Research Diets (New Brunswick, U.S.A) was supplied for 28 days to construct fat-accumulated mice.
# 0.5 ml of 100 mM 3′-siallylactose or 6′-siallylactose dissolved in a phosphate buffer was subcutaneously injected two times (day 0 and day 4) into four to five sites of the dorsal region of the mouse having fat accumulation induced by a high-fat diet. On day 4 and 7, the skin was observed by the naked eye and dermoscopy. A phosphate buffer was used as a control group (CTL).
# [2] = system: 3T3-L1 adipocytes; assay: Oil-Red O staining of intracellular fat in differentiated adipocytes; assay type: cell-based; conditions: differentiated 3T3-L1 adipocytes, 0.01-10 mM, 10 days
# Description: 3T3-L1 adipocytes were purchased from Korean Cell Line Bank. For the culture and maintenance of 3T3-L1 adipocytes, the cells were subcultured in Dulbecco's modified Eagle's medium (DMEM, Welgene, Korea) supplemented with 10% bovin calf serum (FCS, Welgene, Korea) in a 5% CO2 incubator at 37° C. 3T3-L1 adipocytes were divided into six groups as follows: NT; Normal differentiated cell group (control group), sialyllactose test group; 1, 10, 100, 1000, and 10000 μM test groups treated with sialyllactose (SL, Sigma-Aldrich, USA). For cell differentiation, the cells were dispensed in 6-well plates at a density of 2×10^5 cells per well, and grown to 100% confluency. […]
# After differentiation in 6-well plates, 3T3-L1 adipocytes treated with […] or 6’-sialyllactose were washed two times with PBS, and then 2 ml of 10% formalin (Sigma-Aldrich, USA) was added thereto to fix the adipocytes at room temperature for 10 minutes. […] Thereafter, 1 ml of 100% isopropanol (Sigma-Aldrich, USA) was added to effuse stained adipocytes, and then the amount of accumulated fat was measured using absorbance at 500 nm.
# [3] = system: PGC-1α protein; assay: PGC-1α protein expression in brain and hippocampus of old mouse models (western blot); assay type: in vivo; conditions: ICR mice, oral 0.1 mg/kg/day, 42 weeks
# Description: In order to investigate the relative protein expression in the brain compared with before SL (3′-SL & 6′-SL) aministration, 4-week-old ICR mice were purchased from Central Lab Animal (Korea). Water was freely accessible, and a commercially available pellet feed (Dooyeul Biotech, Korea) was given for two weeks. […]
# Sialyllactose or DW was orally administered daily. […] The dietary intake and body weight change were measured every 5 days. […]
# In FIG. 2b, BB1 6′ represents 6′-SL. The “PGC-1α protein expression level” and “GAPDH protein expression level” in each site were quantified, and the relative ratio of the values, (PGC-1α protein expression level)/(GAPDH protein expression level) was numerically expressed for the control group, 3′-SL administration group, and 6′-SL administration group. […]
smiles,measurement,setting,value
"CC(=O)N[C@H]1[C@H]([C@H](O)[C@H](O)CO)O[C@@](OC[C@H]2O[C@@H](O[C@H]3[C@H](O)[C@@H](O)[C@H](O)O[C@@H]3CO)[C@H](O)[C@@H](O)[C@H]2O)(C(=O)O)C[C@@H]1O [6′-SL, α-NeuNAc-(2→6)-β-D-Gal-(1→4)-D-Glc]",subcutaneous fat (naked eye and dermoscopy),[1],greatly reduced subcutaneous fat
same,intracellular fat (Oil Red O),[2]; listed as 6′-siallylactose,greatly reduced
same,intracellular fat (Oil Red O),[2]; listed as 6′-sialyllactose,significantly reduced intracellular fat
same,PGC-1α protein expression level (PGC-1α/GAPDH) vs negative control,[3],much higher
